Results taken from US11123398B2, “Chemotherapeutic combinations of cationic antimicrobial peptides and chemotherapeutics” (LYTIX BIOPHARMA AS, priority 2014, dated 2021).
Non-standard residues stand in square brackets, D forms with d. Residues, ends and D or L forms follow the SMILES beside them. Dip = N[C@H](C(=O)O)C(c1ccccc1)c1ccccc1

Columns and labels:
[1] = system: panel of 37 human cancer cell lines; format: cell-based
Method: The adherent cell lines were washed once with 200 μl FBS-free culture medium before treatment. […] compounds in ¼ dilution step with a top dose of 400 μM (range 4×10^−4 to 4×10^−10 M), with 1% (final concentration) Triton X-100 as positive control and FBS-free culture medium as negative control. The cells (190 μl) were incubated in a 200 μl final volume of FBS-free culture medium containing test substances at 37° C. under 5% CO2.
(§1) Three independent experiments were performed, each concentration being tested in quadruplicate. Control cells were treated with vehicle alone. At the end of treatments, the cytotoxic activity was evaluated by a MTS assay (see § 3.3.).
(§2) Like MTT, MTS is bioreduced by cells into a formazan product that is directly soluble in culture medium without processing, unlike MTT.
(§3) At the end of the cells treatment, 40 μl of a 0.22 μm filtered freshly combined solution of MTS (20 ml at 2 mg/ml, Ref G1111, Batch 235897, Exp March 2009, Promega, Charbonnières, France) and PMS (1 ml at 0.92 mg/ml, Ref P9625, Batch 065K0961, Sigma) in Dulbecco's Phosphate Buffered Saline (DPBS, Ref 17-513Q, Batch 6MB0152, Cambrex), were added in each well. Culture plates were incubated for 2 h at 37° C. Absorbency (OD) were measured at 490 nm in each well using VICTOR^3™ 1420 multilabeled counter (Wallac, PerkinElmer, Courtaboeuf, France).
(§4) IC50: drug concentration to obtain a 50% inhibition of cell proliferation.
(§5) The dose-response curves were plotted using XLFit 3 (IDBS, United Kingdom). The IC50 determination values were calculated using the XLFit 3 software from semi-log curves. Individual IC50 determination values as well as mean and SD values were generated.

IGROV-1/CDDP = test: MTS cytotoxicity assay, IGROV-1/CDDP; format: cell-based, human; conditions: IC50 resistant / IC50 sensitive line; cisplatin resistance
Method: Tumor cells were plated in 96-well flat-bottom microtitration plates (Nunc, Dutscher, Brumath, France) and incubated at 37° C. for 24 hours before treatment in 190 μl of drug-free culture medium supplemented or not with 10% FBS for adherent or suspension growing cell lines, respectively.
The adherent cell lines were washed once with 200 μl FBS-free culture medium before treatment. Tumor cells were incubated for 4 hours with 10 concentrations of compounds in ¼ dilution step with a top dose of 400 μM (range 4×10^−4 to 4×10^−10 M), with 1% (final concentration) Triton X-100 as positive control and FBS-free culture medium as negative control. The cells (190 μl) were incubated in a 200 μl final volume of FBS-free culture medium containing test substances at 37° C. under 5% CO2.
as §1, §2, §3, §4, §5
Resistance index was calculated using the following formula: […]
Resistance index was calculated for each compound for each couple of sensitive and resistant cell lines. Individual resistance index was calculated when IC50 values of both sensitive and corresponding resistant cell lines were determined within same experiment. In addition, resistance index was also calculated ratio of mean IC50 values obtained during three independent experiments.

human red blood cells = test: Haemolytic activity in vitro; format: cell-based; conditions: for Mean cell death (%): 1 h 37° C., 1% RBC
Method: Freshly collected human blood was centrifuged at 1500 rpm for 10 minutes in order to isolate the red blood cells. The red blood cells (RBC) were washed three times with PBS [35 mM phosphate buffer with 150 mM NaCl, pH 7.4] by centrifugation at 1500 rpm for 10 minutes, and adjusted to 10% haematocrit with PBS. LTX-315 solutions were added to give a final concentration range of the peptide from 1200 μg/ml to 1 μg/ml and an RBC concentration of 1%. The resulting suspension was incubated with agitation for one hour at 37° C. After incubation the suspension was centrifuged at 4000 rpm for 5 minutes, and the released haemoglobin were monitored by measuring the absorbance of the supernatant at 405 nm. PBS was used as negative control and assumed to cause no haemolysis. 0.1% Triton was used as positive control and assumed to cause complete haemolysis.
Released haemoglobin was monitored by measuring the absorbance of the supernatant at 405 nm, and percent haemolysis was calculated by the equation: % Haemolysis=[(A405 LTX-315−A405 PBS)/(A405 0.1% Triton X-100−A405 PBS)]×100
LTX-315 concentration corresponding to 50% haemolysis (EC50) was determined from a dose-response curve.

[2] = system: murine A20 B-cell lymphoma; test: Murine A20 B-cell lymphoma tumours in mice, dose levels; format: in vivo; conditions: for Mean tumour size at day 1: prior to start of treatment
Method: The administration took place by intratumoural injection of LTX-315 dissolved in sterile saline.
The mice were divided into four groups (see Table 8 below for details). The intratumoural treatment was initiated when the tumours had reached the desired size of approximately 5 mm in diameter (minimum of 20 mm^2).
Three dose levels of LTX-315, 1 mg (Group 1), 0.5 mg (Group 2) and 0.25 mg (Group 3) per injection, were investigated. The volume was 50 μl for all injections. LTX-315 was dissolved in sterile 0.9% NaCl water solution. This vehicle was used as control (Group 4). All four groups received three injections.
A caliper was used for tumour size measurements and weighing and physical examination were used as health control.

[3] = Group 1: 1 mg intratumoural once daily days 1,2,3
[4] = Group 2: 0.5 mg intratumoural once daily days 1,2,3
[5] = Group 3: 0.25 mg intratumoural once daily days 1,2,3

NCCCC[C@H](NC(=O)[C@@H](NC(=O)[C@H](Cc1c[nH]c2ccccc12)NC(=O)[C@H](CCCCN)NC(=O)[C@H](CCCCN)NC(=O)[C@H](Cc1c[nH]c2ccccc12)NC(=O)[C@H](Cc1c[nH]c2ccccc12)NC(=O)[C@H](CCCCN)NC(=O)[C@@H](N)CCCCN)C(c1ccccc1)c1ccccc1)C(N)=O [LTX-315, K-K-W-W-K-K-W-Dip-K-NH2] (H-KKWWKKW[Dip]K-NH2)
Potency rank among the five compounds tested, 37 cell line panel [1]: most potent compound from the five compounds tested | IC50 ([1]; 4 h): 3.63 ± 1.45 µM | IC50 range against 37 human cancer cell lines ([1]; conclusion): micromolar to ten micromolar range | Resistance index (RI), IGROV-1/CDDP (IGROV-1/CDDP): 0.50 | Mean cell death (%) (human red blood cells; LTX-315 1 μg/ml): 0.0% | Mean cell death (%) (human red blood cells; LTX-315 10 μg/ml): 0.6% | Mean cell death (%) (human red blood cells; LTX-315 50 μg/ml): 1.6% | Mean cell death (%) (human red blood cells; LTX-315 100 μg/ml): 3.6% | Mean cell death (%) (human red blood cells; LTX-315 500 μg/ml): 20.4% | Mean cell death (%) (human red blood cells; LTX-315 1000 μg/ml): 38.2% | Mean cell death (%) (human red blood cells; LTX-315 1200 μg/ml): 37.7% | Mean EC50 (50% haemolysis) (human red blood cells; human red blood cells): greater than 1200 μg/ml | EC50 (human red blood cells; human red blood cells, read-out: Mean EC50 (50% haemolysis)): > 833 µM | IC50 (human red blood cells; red cells of human): ≥ 833 µM | Anti-tumour effect ([2]; 1 mg and 0.5 mg, first period of the study): strong and rapid anti tumour effect | Mean tumour size on day 4 [2, 3]: 0 mm^2 | Mean tumour size on day 9 [2, 3]: 3.70 ± 2.40 mm^2 | Mean tumour size on day 14 [2, 3]: 12.43 ± 7.87 mm^2 | Mean tumour size at day 1 [2, 3]: 25.82 ± 0.80 mm^2 | Free of Tumour at end of Follow-Up ([2]; Group 1: 1 mg x3, n=7): 42.8% (3/7) | Relapse of Tumour ([2]; Group 1: 1 mg x3, n=7): 25% | Tumour Response: complete response ([2]; Group 1: 1 mg x3, n=7): 57.2% (4/7) | Tumour Response: no response ([2]; Group 1: 1 mg x3, n=7): 0% | Tumour Response: partial response ([2]; Group 1: 1 mg x3, n=7): 42.8% (3/7) | Mean tumour size on day 4 [2, 4]: 0 mm^2 | Mean tumour size on day 9 [2, 4]: 11.41 ± 4.69 mm^2 | Mean tumour size on day 14 [2, 4]: 61.08 ± 23.84 mm^2 | Mean tumour size at day 1 [2, 4]: 22.03 ± 0.63 mm^2 | Free of Tumour at end of Follow-Up ([2]; Group 2: 0.5 mg x3, n=7): 28.57% (2/7) | Relapse of Tumour ([2]; Group 2: 0.5 mg x3, n=7): 0% (0/2) | Tumour Response: complete response ([2]; Group 2: 0.5 mg x3, n=7): 28.57% (2/7) | Tumour Response: no response ([2]; Group 2: 0.5 mg x3, n=7): 0% | Tumour Response: partial response ([2]; Group 2: 0.5 mg x3, n=7): 71.42% | Anti-tumour effect ([2]; Group 3, 0.25 mg/dose, first days): a small inhibitory effect is observed during the first days | Mean tumour size on day 4 [2, 5]: 20.60 ± 5.71 mm^2 | Mean tumour size on day 9 [2, 5]: 68.49 ± 12.74 mm^2 | Mean tumour size on day 14 [2, 5]: 69.42 ± 17.70 mm^2 | Mean tumour size at day 1 [2, 5]: 21.25 ± 0.64 mm^2 | Free of Tumour at end of Follow-Up ([2]; Group 3: 0.25 mg x3, n=9): 0% | Tumour Response: complete response ([2]; Group 3: 0.25 mg x3, n=9): 0% (0/9) | Tumour Response: no response ([2]; Group 3: 0.25 mg x3, n=9): 77.77% | Tumour Response: partial response ([2]; Group 3: 0.25 mg x3, n=9): 22.22% | Adverse events or toxic effects ([2]; all LTX-315 groups, intratumoural): Except from the wound formation no other adverse events or toxic effects were observed | Treated mice with complete tumour response ([2]; optimal dose, Group 1 (1 mg x3)): 3 of 7
